Laboratory results from patent US8729032B2, “Self-assembling peptide and peptide gel with high strength” (Menicon Co., Ltd., priority 2009, dated 2014).

Columns and labels:
mouse NIH3T3 cells = assay: Cell culture in autoclaved peptide gel, Cell Counting Kit 8, cell growth rate; format: cell-based; conditions: Day 0 (Hour 2), Day 1, Day 3, Day 5; gel from 0.5 w/v % solution autoclaved at 121° C. for 20 minutes; FIG. 9
Experimental: The modified peptide 1 was dissolved in a sodium carbonate solution to prepare a 0.5 w/v % peptide aqueous solution (final concentration of sodium carbonate: 2.75 mM). The peptide aqueous solution was subjected to sterilization treatment at 121° C. for 20 minutes using an autoclave apparatus (product number “MLS 3020” manufactured by SANYO Electric Co., Ltd.) to afford a peptide gel. The gel and a cell suspension obtained by suspending mouse NIH3T3 cells in a DMEM medium were uniformly mixed with each other at a volume ratio of 2:1 (gel:cell suspension) by pipetting. […] Cell growth rates were measured using a trade name “Cell Counting Kit 8” (manufactured by DOJINDO LABORATORIES) on Day 0 (Hour 2), Day 1, Day 3, and Day 5 after the start of culture.
A specific procedure for the measurement of the cell growth rates described above is as described below. […] After the incubation, 100 μL of the medium permeating the gel in the Cell Culture Insert were transferred to a well of a 96-well plate, and the absorbance of the medium at 450 nm was measured using a plate reader. Cell growth rates in the respective culture days were determined with the absorbance of a sample on Day 0 after the start of culture defined as 100.

mouse myoblasts (L6) = assay: Cell culture in peptide gel, DNA quantification (CyQUANT), cell growth rate; format: cell-based; conditions: rate immediately after start = 100%, peptide 0.4 w/v %, average of n=3
Excerpt: A cell suspension including mouse myoblasts (L6) at a cell concentration of 2.0×10^6 cells/ml and a peptide aqueous solution including the modified peptide 1 at 1.0 w/v % were mixed with each other at a volume ratio of 3:2 (cell suspension:peptide aqueous solution). The resultant mixture (cell concentration: 1.2×10^6 cells/ml, peptide concentration: 0.4 w/v %) was charged into a Cell Culture Insert (product number “353096” manufactured by BD Falcon) and left to stand still at room temperature for approximately 1 minute to form a peptide gel. The gel in the Cell Culture Insert was directly set in wells of a 24-well plate for tissue culture (product number “3820-024” manufactured by AGC TECHNO GLASS CO., LTD.) with 1 mL of a DMEM medium containing 10% calf serum. Next, cell culture was carried out in an incubator at 37° C. in the presence of 5% CO2. Medium exchange was carried out only once on Day 2 after the start of culture. The gel was collected on Days 1, 2, and 4 after the start of culture, and DNA quantification was carried out using a trade name “CyQUANT (registered trademark) Cell Proliferation Assay Kit*for cells in culture**1000 assays*” (product number “C7026” manufactured by Invitrogen), to thereby calculate cell growth rates. The cell growth rates on Days 1, 2, and 4 after the start of culture were 150%, 180%, and 310%, respectively, when the cell growth rate immediately after the start of culture was defined as 100%, that is, the number of cells increased in accordance with a lapse of days (an average of n=3 was used for the calculation results).

| Substance | cell growth rates (mouse NIH3T3 cells) | cell growth rate (mouse myoblasts (L6); Day 1 after start of culture) [%] | cell growth rate (mouse myoblasts (L6); Day 2 after start of culture) [%] | cell growth rate (mouse myoblasts (L6); Day 4 after start of culture) [%] |
| --- | --- | --- | --- | --- |
| [CH3CO]-RLDLRLALRLDLR-[NH2] (Ac-RLDLRLALRLDLR-NH2) [modified peptide 1] | increased in accordance with a lapse of culture days | 150 | 180 | 310 |
| [CH3CO]-RLDLRLLLRLDLR-[NH2] (Ac-RLDLRLLLRLDLR-NH2) [modified peptide 2] |  | 140 | 160 | 250 |
